The subject of experiment [1] is HeLa. In words: Compound was tested for NF-kB inhibitory activity in Hela M cells. It is filed as functional, Homo sapiens.
Experiment [2] has as its system HEK293. Nature of the experiment: Compound was tested for NF-kB inhibitory activity in HEK 293 cells. The experiment is classed as functional, Homo sapiens.

Drawing on ChEMBL document CHEMBL1135852, “Inhibitors of NF-kappaB signaling: design and synthesis of a biotinylated isopanepoxydone affinity reagent” (2002), this text covers Inhibitory activity for 12 molecules.

Consider `CC(C)(O)/C=C/C1=CC(=O)[C@@H]2O[C@@H]2[C@@H]1O`, for which, in experiment [1], the Inhibitory activity entry is “>=100”.

In the case of `CC(=O)O[C@H]1C(/C=C/C(C)(O)CCCCCCCCN2C(=O)c3ccccc3C2=O)=CC(=O)[C@@H]2O[C@@H]21` (stereo partly drawn), the Inhibitory activity entry in experiment [2] and in experiment [1] was “<=0” each time.

Consider `CC(C)=C[C@@H](O)C1=C[C@@H](O)[C@@H]2O[C@@H]2C1=O`, for which the Inhibitory activity result in experiment [2] and in experiment [1] was “<=0” each time.

`CC(C)(O)/C=C/C1=CC(=O)[C@@H]2O[C@@H]2C1=O`: the Inhibitory activity result in experiment [2] and in experiment [1] was “<=0” each time.

`CC(=O)O[C@H]1C(/C=C/C(C)(C)O)=CC(=O)[C@@H]2O[C@@H]21`: the Inhibitory activity result in experiment [2] and in experiment [1] was “<=0” throughout.

In the case of `CC(C)(O)/C=C/C1=CC(=O)[C@@H]2O[C@@H]2[C@H]1O`, the Inhibitory activity in experiment [2] was 4; in experiment [1] it was “<=0”.

With `CC(C)(O)/C=C/C1=C[C@@H](O)[C@@H]2O[C@@H]2C1=O`, the Inhibitory activity in experiment [2] is given as 63; in experiment [1], “>=100”.

Take `CC(=O)O[C@@H]1C(/C=C/C(C)(C)O)=CC(=O)[C@@H]2O[C@H]12`: the Inhibitory activity result in experiment [2] and in experiment [1] was “<=0” in each case.

For `CC(=O)O[C@@H]1C(/C=C/C(C)(C)O)=C[C@@H](O)[C@@H]2O[C@@H]21`, the Inhibitory activity is 58 in experiment [2] and “>=100” in experiment [1].

Take `CC(=O)O[C@H]1C(/C=C/C(C)(C)O)=C[C@@H](O)[C@@H]2O[C@@H]21`: the Inhibitory activity in experiment [2] is 49; in experiment [1] it was “>=100”.

Turning to `CC(C)=CC(=O)C1=C[C@@H](O)[C@@H]2O[C@@H]2[C@@H]1O`, the Inhibitory activity is on record as 65 in experiment [2] and 85 in experiment [1].

`CC(C)=C[C@H](O)C1=C[C@@H](O)[C@@H]2O[C@@H]2C1=O` [PANEPOXYDONE]: the Inhibitory activity result in experiment [2] and in experiment [1] was “<=0” throughout.
